The values that follow are results of earlier work, collected in patent US20160213656A1, “H[…] FORM” (Sovereign Pharmaceuticals, LLC, priority 2004, published 2016).

In the case of `CN1[C@@H]2CC[C@H]1C[C@@H](OC(=O)[C@H](CO)c1ccccc1)C2` [hyoscyamine], where the note is “once absorbed, blood”, the “time for which therapeutic levels are maintained” value is “approximately 3.5 hours”. For the setting “urine, unchanged drug”, the “time within which the majority of hyoscyamine is excreted in the urine unchanged” value was at most 12 h.
